Source: article PMC5149032, “Secondary Metabolites and Biological Activities of Talaromyces sp. LGT-2, an Endophytic Fungus from Tripterygium Wilfordii” (Iranian Journal of Pharmaceutical Research : IJPR, 2016)
pIC50: −log10 of the molar value.

Molecular target: monoamine oxidase (MAO), isoform not stated
Assay: MAO inhibition assay (procedure cited to earlier paper; enzyme source not given)
Type: biochemical

O=CN/C=C\c1ccc(O)cc1 [compound 11, (Z)-N-(4-hydroxystyryl)formamide]
pIC50: 4.21
